Results published in patent US20210177751A1, “HYPOTONIC HYDROGEL FORMULATIONS FOR ENHANCED TRANSPORT OF ACTIVE AGENTS AT MUCOSAL SURFACES” (The Johns Hopkins University, priority 2017, published 2021).

Legend:
C57/B6 mice = experiment: laser-induced choroidal neovascularization (CNV) in mice; format: in vivo, mouse; conditions: topical daily for 7 days
Protocol: C57/B6 mice where used to test the topical delivery of sunitinib malate (5 uL at 4 mg/mL) and acriflavine (5 uL at 5 mg/mL) in preventing choroidal neovascularization (CNV) in mice after laser induced rupture of Bruch's membrane in three locations. After laser, both drugs either dissolved in 12% F127 or a aqueous vehicle control (saline or water), were dosed daily for 7 days.

[1] = test system: retinal ganglion cells (RGCs); experiment: optic nerve crush after 5 daily topical doses, pigmented rats; format: in vivo, rat (Brown Norway); conditions: in 12% F127, daily for 5 days before crush; 14 days after crush; pigmented rats (Brown Norway)
Protocol: Rats were dosed topically with sunitinib malate (5 uL at 4 mg/mL) in 12% F127 daily for 5 days unilaterally. Then, the optic nerve head was exposed and crushed unilaterally and the contralateral eye was used as the control for comparison. 14 days after crushing the nerve (without additional topical dosing), the tissues were isolated for qPCR for genes expressed by retinal ganglion cells (RGCs).

[2] = test system: retinal ganglion cells (RGCs); experiment: optic nerve crush with once weekly topical dosing; format: in vivo, rat (Brown Norway); conditions: Day 22
Protocol: Pigmented rats (Brown Norway) were dosed topically (5 uL at 4 mg/mL) with sunitinib malate in 12% F127 or in saline once weekly unilaterally. The optic nerve head was exposed and crushed unilaterally on Day 8 and the contralateral eye was used as the control for comparison. 14 days after crushing the nerve (Day 22), the tissues were isolated for qPCR for genes expressed by retinal ganglion cells (RGCs).

[3] = ocular tissue distribution in Dutch belted rabbits (LC-MS); format: in vivo, rabbit; conditions: 4 mg/ml in 12% F127, daily for 14 days; tissues 6 h after final dose
Protocol: (§1) Sunitnib malate was dissolved in 12% F127 at a concentration of 4 mg/ml and dosed topically to pigmented (Dutch belted) rabbits and pigmented pigs (juvenile farm pigs) once per day for a total of 14 days or 5 days, respectively. Dosing in both rabbits and pigs occurred without anesthesia and 50 uL or 50˜100 uL of an eye drop was administered, respectively. However, dosing in pigs occurred while distracted with food. Tissues were collected 6 h after the final dose for rabbits and 1 h after the final dose for pigs. The drug concentrations were measured by LC-MS.

[4] = ocular tissue distribution in farm pigs (LC-MS); format: in vivo, pig; conditions: 4 mg/ml in 12% F127, daily for 5 days; tissues 1 h after final dose
Protocol: as §1

[5] = dissolved in aqueous vehicle control (saline or water)

| Compound | suppression of choroidal neovascularization (C57/B6 mice; dissolved in 12% F127) | suppression of choroidal neovascularization (C57/B6 mice; [5]) | protection of RGCs (qPCR for RGC genes) [1] | protection of RGCs (qPCR for RGC genes) ([2]; in 12% F127, once weekly) | protection of RGCs (qPCR for RGC genes) ([2]; in saline, once weekly) | sunitinib and N-desethyl sunitinib levels in ocular tissues and fluids [3] | sunitinib and N-desethyl sunitinib levels in ocular tissues and fluids [4] |
| --- | --- | --- | --- | --- | --- | --- | --- |
| CCN(CC)CCNC(=O)c1c(C)[nH]c(/C=C2\C(=O)Nc3ccc(F)cc32)c1C [sunitinib malate] | efficacious in suppressing neovascularization in the choroid | Only the formulations containing 12% F127 were efficacious | protection of RGCs | Protection of RGCs was only observed when sunitinib malate was dosed in 12% F127 | not when sunitinib malate was dosed in saline | Therapeutically relevant levels of drug were found in the anterior and posterior segments | Therapeutically relevant levels of drug were found in the anterior and posterior segments |
| acriflavine | efficacious in suppressing neovascularization in the choroid | Only the formulations containing 12% F127 were efficacious |  |  |  |  |  |
